How the values were obtained:
hrPDE3A = target: T1, hrPDE3A (Homo sapiens, UniProt Q14432); assay: PDE-Glo catalytic activity assay, PDE3A; format: biochemical
T1 construct: purchased SignalChem, Richmond, Canada
Experimental: The inhibitory activity of compound 34 against hrPDE1B and hrPDE3A (SignalChem, Richmond, Canada) was assessed using the PDE-Glo™ catalytic activity assay (Promega Corporation, Madison, WI, USA). It was performed on 384-well plates according to manufacturer’s instructions with slight modifications. Solutions of both PDEs were prepared by diluting their stock solutions in the PDE-Glo™ Reaction Buffer and aliquots of 6.5 μL were added to the wells. A stock solution of the tested compound was prepared in DMSO at a concentration of 10 mM and serially diluted with the same solvent. The obtained solutions were further diluted with PDE-Glo™ Reaction Buffer (1:5, v/v) and aliquots of 1 μL were transferred to the respective wells. Then, the mixture was incubated for 10 min at 30 °C on a heated plate shaker (Grant Instruments, Cambridge, United Kingdom). The reaction was started by the addition of 2.5 μL of a 0.2 μM cAMP solution to each well and the plate was incubated for 10 min at 30 °C on a heated plate shaker. Moreover, for each series, respective control reactions were performed: no-substrate, no-enzyme negative control reactions; no-enzyme positive control reactions containing substrate; and no-inhibitor positive control reactions containing both the substrate and PDE. After incubation, the reaction was stopped by adding 2.5 μL of the PDE-Glo™ Termination Buffer. A volume of 2.5 μL of the PDE-Glo™ Detection Buffer was transferred to each well and the plate was incubated for 20 min at room temperature. Finally, an aliquot of 10 μL of the PDE-Glo Kinase® Reagent was added to the wells. The plate was incubated for 10 min at room temperature and luminescence was measured with a luminometer (BMG Labtech, Ortenberg, Germany). For each inhibitor concentration, four independent measurements were performed. The resulting data were expressed as percent of an uninhibited control and plotted against the inhibitor concentration. The IC50 values were estimated by nonlinear regression using ADAPT5 software (BMSR, Los Angeles, CA, USA).

[1] = system: ConA-induced hepatitis in mice; assay: ConA-induced hepatitis in mice; format: in vivo, BALB/c mice; conditions: 50 mg·kg^−1 IP 30 min prior to ConA
Experimental: ConA was dissolved in saline for injection at a concentration of 2 mg·mL^−1. The mice were given IP doses of compound 34 or the equivalent volume of vehicle (control group) and, 30 min later, animals were given an IV injection of ConA (20 mg·kg^−1) via tail vein. An additional group of mice was given vehicle alone IP followed by an IV injection of saline. The mice were sacrificed by exsanguination at 2, 8, and 24 h post-ConA dosing. Blood samples were collected and handled as described above.
Serum aspartate transaminase (AST) and alanine transaminase (ALT) activities were analyzed using the chemistry analyzer BS-800 (Shenzhen Mindray Bio-medical Electronics Co., Ltd., Shenzhen, China). Cytokine levels in mouse serum (TNFα, IL-4, IL-6, and interferon (IFN)γ) were quantified by a Magnetic Luminex® Assay (R&D Systems, Inc, Minneapolis, MN, USA) using a Magpix platform (Luminex Corp., Austin, TX, USA).

T1 sequence (Q14432 whole entry): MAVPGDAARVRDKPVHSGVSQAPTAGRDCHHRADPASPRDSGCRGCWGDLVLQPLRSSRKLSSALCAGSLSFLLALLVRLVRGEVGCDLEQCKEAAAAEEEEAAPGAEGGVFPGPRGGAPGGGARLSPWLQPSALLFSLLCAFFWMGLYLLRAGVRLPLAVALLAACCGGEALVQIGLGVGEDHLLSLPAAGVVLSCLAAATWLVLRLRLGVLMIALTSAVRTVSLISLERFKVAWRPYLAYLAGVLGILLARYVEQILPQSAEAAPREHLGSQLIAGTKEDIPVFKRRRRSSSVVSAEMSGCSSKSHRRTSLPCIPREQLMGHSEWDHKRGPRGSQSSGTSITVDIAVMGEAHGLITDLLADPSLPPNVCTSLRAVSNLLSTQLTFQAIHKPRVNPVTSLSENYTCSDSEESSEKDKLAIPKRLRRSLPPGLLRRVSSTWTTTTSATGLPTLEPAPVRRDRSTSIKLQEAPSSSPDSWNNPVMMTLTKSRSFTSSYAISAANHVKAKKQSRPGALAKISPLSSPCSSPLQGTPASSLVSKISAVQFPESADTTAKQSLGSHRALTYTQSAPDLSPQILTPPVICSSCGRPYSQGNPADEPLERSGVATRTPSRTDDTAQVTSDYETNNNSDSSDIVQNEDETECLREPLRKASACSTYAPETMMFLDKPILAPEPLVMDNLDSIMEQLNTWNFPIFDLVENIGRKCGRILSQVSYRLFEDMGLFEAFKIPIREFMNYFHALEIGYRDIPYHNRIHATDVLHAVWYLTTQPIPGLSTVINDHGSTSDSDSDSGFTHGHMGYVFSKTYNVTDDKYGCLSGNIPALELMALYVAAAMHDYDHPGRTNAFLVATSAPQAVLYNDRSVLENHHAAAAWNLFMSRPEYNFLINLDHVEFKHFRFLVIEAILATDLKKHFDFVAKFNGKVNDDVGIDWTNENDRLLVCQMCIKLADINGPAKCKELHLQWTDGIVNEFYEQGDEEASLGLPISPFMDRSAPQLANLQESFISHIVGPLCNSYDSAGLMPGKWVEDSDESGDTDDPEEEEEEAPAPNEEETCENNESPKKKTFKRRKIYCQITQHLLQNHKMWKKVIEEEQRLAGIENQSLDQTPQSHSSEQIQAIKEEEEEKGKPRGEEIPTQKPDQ

Cn1c(=O)c2c(nc(NCCc3ccccc3)n2CCCC(=O)NN=Cc2ccc(O)c(O)c2O)n(C)c1=O [Compound 34, 4-(1,3-dimethyl-2,6-dioxo-8-(phenethylamino)-2,3,6,7-tetrahydro-1H-purin-7-yl)-N′-(2,3,4-trihydroxybenzylidene)butanehydrazide]
IC50 (hrPDE3A; human recombinant PDE3A, CV% in brackets, read-out: IC50 (µM) Against PDE Isoform (CV%) PDE3A): 0.78 µM
times more potent than GRMS-55 in inhibiting PDE3A (hrPDE3A; ratio of IC50 values, vs GRMS-55): 17 times
inhibitory activity against PDE3A, times lower compared to milrinone (hrPDE3A; ratio of IC50 values, vs milrinone): about 4 times
serum IFNγ level compared to the control group ([1]; 2 h after ConA injection): not significantly different
serum IL-4 concentration, lower compared to the control group ([1]; 2 h after ConA injection): 76%
serum IL-6 level compared to the control group ([1]; 2 h after ConA injection): not significantly different
serum TNFα concentration, lower compared to the control group ([1]; 2 h after ConA injection): 34%
ALT serum activity, reduction compared to the control group ([1]; 8 h post-ConA injection): 73%
AST serum activity, reduction compared to the control group ([1]; 8 h post-ConA injection): 59%
serum IFNγ concentration, lower compared to the control group ([1]; 24 h post-ConA dosing): 36%
serum IL-4 level, treatment vs control group ([1]; 24 h post-ConA dosing): not different
serum IL-6 level, treatment vs control group ([1]; 24 h post-ConA dosing): not different

Reference: article PMC9147171, “Pharmacokinetic/Pharmacodynamic Evaluation of a New Purine-2,6-Dione Derivative in Rodents with Experimental Autoimmune Diseases” (Pharmaceutics, 2022)
